Key:
[1] = Metabolic stability in a cell-free assay (liver S9 fraction); type: in vitro ADME; settings: pooled liver S9 fraction; human liver S9 fraction 1 mg/ml, NADPH regenerating system, UDPGA, PAPS, 37°C; inhibitor 1 μM; read-out: Inhibitor t1/2
Experimental: Compounds 7a, 8a, 16a, 19a, 22a, 27a and 27 were tested according to established method[33–35]For evaluation of phase I and II metabolic stability 1 μM compound was incubated with 1 mg/ml pooled mammalian liver S9 fraction (BD Gentest), 2 mM NADPH regenerating system, 1 mM UDPGA and 0.1 mM PAPS at 37°C for 0, 5, 15 and 60 minutes at a final volume of 100 μL. The incubation was stopped by precipitation of S9 enzymes with 2 volumes of cold acetonitrile containing internal standard. Concentration of the remaining test compound at the different time points was analyzed by LC-MS/MS and used to determine half-life (t1/2).

[2] = biological target: T1, h17β-HSD2 (Homo sapiens, UniProt P37059); assay: Inhibition of h17β-HSD2 in cell-free assay; type: biochemical; design: from tissue; host or cells: human placenta, microsomal fraction; settings: for inhibition at 1 µM: read-out: % inh. at 1 μM h17β-HSD2; for s.f. (selectivity factor) = IC50(17β-HSD1)/IC50(17β-HSD2): human enzymes, cell-free
T1 sequence (P37059 1-387): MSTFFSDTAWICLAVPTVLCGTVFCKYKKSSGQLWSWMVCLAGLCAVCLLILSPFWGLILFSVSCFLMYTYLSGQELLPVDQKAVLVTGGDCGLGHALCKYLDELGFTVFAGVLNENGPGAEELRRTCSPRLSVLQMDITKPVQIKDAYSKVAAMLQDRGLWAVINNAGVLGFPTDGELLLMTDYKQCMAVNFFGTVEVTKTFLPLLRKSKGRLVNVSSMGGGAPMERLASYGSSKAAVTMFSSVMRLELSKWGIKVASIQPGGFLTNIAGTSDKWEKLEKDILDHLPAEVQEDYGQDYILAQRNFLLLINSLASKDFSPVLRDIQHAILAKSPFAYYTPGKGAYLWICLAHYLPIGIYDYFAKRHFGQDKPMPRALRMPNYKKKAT
Experimental: (§1) h17β-HSD2, h17β-HSD1, m17β-HSD2 and m17β-HSD1 cell-free assays were performed similarly, by incubating enzyme, tritiated substrate, cofactor and inhibitor, according to described procedures.
(§2) Cytosolic (h17β-HSD1) and microsomal (h17β-HSD2) fractions were obtained from human placenta according to previously described procedures. Fresh tissue was homogenized and the enzymes were separated from the mitochondria, cell membrane. Nucleus and other rests by fractional centrifugation at 1000 g, 10.000 g and 150.000 g. The pellet fraction containing the microsomal h17β-HSD2 was used for the determination of h17β-HSD2 inhibition, while h17β-HSD1 was obtained after precipitation with ammonium sulfate from the cytosolic fraction for use of testing of h17β-HSD1 inhibition. Aliquots containing h17β-HSD1 or h17β-HSD2 were stored frozen.
(§3) Inhibitory activities were evaluated following an established method with minor modifications. Briefly, the enzyme preparation was incubated with NAD^+ [1500 μM] in the presence of potential inhibitors at 37C in a phosphate buffer (50 mM) supplemented with 20% of glycerol and EDTA 1mM. Inhibitor stock solutions were prepared in DMSO. Final concentration of DMSO was adjusted to 1% in all samples. […] After 20 min, the incubation was stopped with HgCl2 and the mixture was extracted with ether. After evaporation, the steroids were dissolved in acetonitrile/water (45:55). […] Detection and quantification of the steroids were performed using a radioflow detector (Berthold Technologies, Bad Wildbad). […] Each value was calculated from at least two independent experiments.

[3] = biological target: T2, h17β-HSD1 (Homo sapiens, UniProt P14061); assay: Inhibition of h17β-HSD1 in cell-free assay; type: biochemical; settings: human placental cytosolic fraction, substrate E1 [500 nM], cofactor NADH [500 μM]; for inhibition at 1 µM: read-out: % inh. at 1 μM h17β-HSD1
T2 construct: h17β-HSD1 was obtained after precipitation with ammonium sulfate from the cytosolic fraction; from tissue; host or cells: human placenta, cytosolic fraction
T2 sequence (P14061 1-328): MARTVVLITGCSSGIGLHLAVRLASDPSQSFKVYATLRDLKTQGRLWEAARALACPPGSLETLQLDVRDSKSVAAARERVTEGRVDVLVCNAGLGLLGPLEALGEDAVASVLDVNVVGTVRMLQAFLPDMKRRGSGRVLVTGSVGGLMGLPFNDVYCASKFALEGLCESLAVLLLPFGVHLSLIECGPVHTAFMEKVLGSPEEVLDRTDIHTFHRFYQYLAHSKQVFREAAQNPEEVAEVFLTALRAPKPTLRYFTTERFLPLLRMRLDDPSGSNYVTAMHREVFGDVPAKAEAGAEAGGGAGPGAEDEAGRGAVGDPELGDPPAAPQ
Experimental: as §1, §2
(§4) The 17β-HSD1 inhibition assay was performed similarly to the h17β-HSD2 test. The human cytosolic enzyme was incubated with NADH [500 μM] while the mouse recombinant enzyme was reacted with NADPH [500 μM].Test compound and a mixture of unlabelled- and [^3H]-E1 (final concentration: 500 nM, 0.15 μCi) were added and mixed for 10 min at 37°C. Further treatment of the samples and HPLC separation was carried out as mentioned above for h17β-HSD2.

[4] = biological target: T3, m17β-HSD2 (Mus musculus, UniProt P51658); assay: Inhibition of m17β-HSD2 in cell-free assay; type: biochemical; settings: read-out: % inh. at 1 μM m17β-HSD2
T3 construct: The microsomal fraction (m17β-HSD2) was obtained from mouse liver as described for h17β-HSD2; tissue Pharmacelsus GmbH (mouse livers); host or cells: mouse liver, microsomal fraction
T3 sequence (P51658 1-381): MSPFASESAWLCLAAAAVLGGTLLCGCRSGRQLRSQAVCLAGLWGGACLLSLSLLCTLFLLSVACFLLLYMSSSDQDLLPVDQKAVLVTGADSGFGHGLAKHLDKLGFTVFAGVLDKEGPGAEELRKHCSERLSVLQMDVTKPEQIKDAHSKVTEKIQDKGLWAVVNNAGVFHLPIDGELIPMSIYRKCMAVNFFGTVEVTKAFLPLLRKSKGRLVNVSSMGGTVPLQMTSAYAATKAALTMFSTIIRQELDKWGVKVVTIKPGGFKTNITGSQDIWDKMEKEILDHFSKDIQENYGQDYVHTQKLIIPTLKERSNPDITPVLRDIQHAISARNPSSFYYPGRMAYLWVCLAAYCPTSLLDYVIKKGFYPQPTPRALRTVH
Experimental: as §1
The microsomal fraction (m17β-HSD2) was obtained from mouse liver as described for h17β-HSD2. Inhibitory activities were evaluated by a method identical to the one described for the human enzyme.
as §3

[5] = biological target: T4, m17β-HSD1 (Mus musculus, UniProt P51656); assay: Inhibition of m17β-HSD1 in cell-free assay; type: biochemical; settings: recombinant m17β-HSD1, substrate E1 [500 nM], NADPH [500 μM]
T4 construct: host or cells: HEK 293 cells, transient transfection, 1000 g supernatant of the lysate
T4 sequence (P51656 1-344): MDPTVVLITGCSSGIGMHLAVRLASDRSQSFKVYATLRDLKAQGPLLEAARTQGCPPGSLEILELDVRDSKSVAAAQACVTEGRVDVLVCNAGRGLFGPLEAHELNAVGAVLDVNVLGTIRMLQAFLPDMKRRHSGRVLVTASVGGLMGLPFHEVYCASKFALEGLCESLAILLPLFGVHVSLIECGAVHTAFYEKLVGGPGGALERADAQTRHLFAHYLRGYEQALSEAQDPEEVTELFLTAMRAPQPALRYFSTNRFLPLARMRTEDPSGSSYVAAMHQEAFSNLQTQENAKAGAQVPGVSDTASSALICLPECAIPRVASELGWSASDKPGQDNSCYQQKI
Experimental: as §1
Recombinant m17β-HSD1 enzyme was produced by transfection of HEK 293 cells with a m17β-HSD1 expression plasmid (coding sequence of NM_010475 in pCMV6Entry vector, OriGene Technologies, Inc.) according to a described procedure. 48 hours after transfection cells were homogenized by sonication (3 x 10 s) in a buffer containing saccharose (40 mMTris, 250 mM saccharose, 5 mM EDTA, 7 mM DTT, 1 mM PMSF, pH 7,5). Cell lysate was centrifuged (1000 g, 15 min, 4°C) and 20% glycerol was added to the supernatant before aliquots were frozen and stored at -70°C.
as §4

Row | Structure (SMILES) | half-life at 1 μM [1] | inhibition at 1 µM [2] | inhibition at 1 µM [3] | inhibition at 1 µM [4] | melting point | IC50 [2] | s.f. (selectivity factor) = IC50(17β-HSD1)/IC50(17β-HSD2) [2] | IC50 [3] | inhibition of m17β-HSD1 at 1 μM [5]
1 | COc1cccc(-c2ccc(C(=O)N(C)c3cccc(C)c3)cc2)c1 [Compound 5a, 3'-Methoxy-N-methyl-N-(m-tolyl)-[1,1'-biphenyl]-4-carboxamide] | 1.93 h | 44% | < 10% | 56% |  |  |  |  | 
2 | COc1ccc(-c2ccc(C(=O)N(C)c3cccc(OC)c3)cc2)cc1 [Compound 10a, 4'-Methoxy-N-(3-methoxyphenyl)-N-methyl-[1,1'-biphenyl]-4-carboxamide] |  |  |  | 66% | 128 to 130 °C | 0.71 µM | 38 | 27 µM | None of the tested compounds showed any inhibition
3 | COc1cccc(N(C)C(=O)c2ccc(-c3cccc(Cl)c3)cc2)c1 [Compound 14a, 3'-Chloro-N-(3-methoxyphenyl)-N-methyl-[1,1'-biphenyl]-4-carboxamide] | 1.37 h |  |  | 73% |  | 0.95 µM | 13 | 12.6 µM | None of the tested compounds showed any inhibition
4 | COc1cccc(N(C)C(=O)c2ccc(-c3cccc(N(C)C)c3)cc2)c1 [Compound 15a, 3'-(Dimethylamino)-N-(3-methoxyphenyl)-N-methyl-[1,1'-biphenyl]-4-carboxamide] |  |  |  | 67% |  | 0.65 µM | 8 | 5 µM | None of the tested compounds showed any inhibition
5 | COc1cccc(N(C)C(=O)c2ccc(-c3cccc(OC)c3F)cc2)c1 [Compound 19a, 2'-Fluoro-3'-methoxy-N-(3-methoxyphenyl)-N-methyl-[1,1'-biphenyl]-4-carboxamide] |  | 64% | 35% | 67% | 125 to 127 °C |  |  |  | None of the tested compounds showed any inhibition
6 | COc1cccc(N(C)C(=O)c2ccc(-c3cccc(C)c3F)cc2)c1 [Compound 20a, 2'-Fluoro-N-(3-methoxyphenyl)-N,3'-dimethyl-[1,1'-biphenyl]-4-carboxamide] | 1.73 h |  |  | 48% | 91 to 94 °C | 0.46 µM | 24 | 11.3 µM | 
7 | COc1cccc(N(C)C(=O)c2ccc(-c3ccc4c(c3)OCO4)cc2)c1 [Compound 22a, 4-(Benzo[d][1, 3]dioxol-5-yl)-N-(3-methoxyphenyl)-N-methylbenzamide] |  | 51% | < 10% | 56% | 139 to 141 °C |  |  |  | 
8 | Cc1cccc(N(C)C(=O)c2ccc(-c3ccc4c(c3)OCO4)cc2)c1 [Compound 23a, 4-(Benzo[d][1, 3]dioxol-5-yl)-N-methyl-N-(m-tolyl)benzamide] |  |  |  | 70% | 111 to 113 °C | 0.56 µM | 20 | 10.9 µM | None of the tested compounds showed any inhibition
